What was measured:
RSV = settings: Antimicrobial Agents and Chemotherapy, September 2007, 3346-3353; cited from earlier work
[1] = Liver microsomal stability, rat; type: in vitro ADME; settings: pooled liver microsomes, pH 7.4; rat liver microsomes 0.5 mg/mL, 1 μM compound, NADPH, 37° C.; read-out: Liver Microsomal Stability t½, rat
Experimental: (§1) Compounds were subjected to the following assays to investigate liver microsomal stability.
(§2) Microsomal Incubation: Experimental Procedure
(§3) Pooled liver microsomes were purchased from a reputable commercial supplier and stored at −80° C. prior to use. Microsomes (final protein concentration 0.5 mg/mL), 0.1 M phosphate buffer pH 7.4 and test compound (final substrate concentration 1 μM; final DMSO concentration 0.25%) were pre-incubated at 37° C. prior to the addition of NADPH (final concentration 1 mM) to initiate the reaction. The final incubation volume was 50 uL. A control incubation was included for each compound tested where 0.1 M phosphate buffer pH 7.4 was added instead of NADPH (minus NADPH). Two control compounds were included with each species. All incubations were performed singularly for each test compound. Each compound was incubated for 0, 5, 15, 30 and 45 min. The control (minus NADPH) was incubated for 45 min only. The reactions were stopped by transferring incubate into acetonitrile at the appropriate time points, in a 1:3 ratio. The termination plates are centrifuged at 3,000 rpm for 20 min at 4° C. to precipitate the protein. Following protein precipitation, the sample supernatants were combined in cassettes of up to 4 compounds, internal standard added, and samples analysed by LC-MS/MS. From a plot of ln peak area ratio (compound peak area/internal standard peak area) against time, the gradient of the line was determined. Subsequently, half-life (t1/2) and intrinsic clearance (CLint) were calculated.

[2] = Liver microsomal stability, human; type: in vitro ADME; settings: pooled liver microsomes, pH 7.4; human liver microsomes 0.5 mg/mL, 1 μM compound, NADPH, 37° C.; read-out: Liver Microsomal Stability t½, human
Experimental: as §1, §2, §3

RSV A2 = experiment: RSV plaque reduction assay; type: cell-based; settings: human respiratory syncytial virus, HepG2, 48 h; Hep-G2 cells, RSV A2, 2 days incubation; mean of at least two experiments
Experimental: Compounds were subjected to an RSV plaque reduction assay according to the following protocol.
Hep-G2 cells (ECACC, 85011430) were passaged in flasks and seeded in 24-well plates in DMEM containing antibiotics and supplemented with 10% FBS. During inoculation and subsequent incubation, cells were cultured in DMEM containing 2% FBS. 100 plaque forming unit/well of RSV (RSV A2 ECACC, 0709161v) was mixed with eight serial dilutions of compound. Subsequently, 100 μL of the virus/compound mixtures was added to confluent Hep-G2 cell monolayers. The cells and virus/compound mixtures were incubated at 37° C. in a humidified 5% CO2 incubator for 2 h prior to removal of the inoculum and addition of 1 mL of overlay (DMEM containing FBS and 0.8% CMC) containing compound dilutions. The cells and were incubated at 37° C. in a humidified 5% CO2 incubator for 2 days.
Cells were washed with PBS before adding 75/25% v/v EtOH/MeOH, for 3 min. Fixative was removed and plates were washed with PBS. A pre-titrated amount of the primary antibody was added in 200 μL PBS/2% milk powder, and plates incubated for 90 min at 37° C. The plates were washed 3 times with PBS/0.05% Tween20 before addition of rabbit anti-goat horse radish peroxidase in 200 μL PBS/2% milk powder, and incubated for 1 h at 37° C. Following three wash steps with PBS/0.05% Tween20, 200 μL ready-to-use TrueBlue was added and plates were incubated at rt for 10-15 min before washing with water. After removal of water, plates were air-dried in the dark.
Plates were scanned and analysed using the Immunospot S6 Macro analyser, which is equipped with BioSpot analysis software for counting immunostained plaques (virospots). Plaque counts were used to calculate % infection relative to the mean of the plaque count in the virus control wells for RSV. The EC50 value was calculated as 50% reduction in signal, respectively, by interpolation of inhibition curves fitted with a 4-parameter nonlinear regression with a variable slope in Dotmatics. Plaque EC50 and cell toxicity CC50 values are a mean of at least two experiments and figures are rounded to whole units.

Cell cytotoxicity (CC50) = type: cell-based; settings: human, Hep-G2 cells; mean of at least two experiments
[3] = Liver microsomal stability, dog; type: in vitro ADME; settings: pooled liver microsomes, pH 7.4; dog liver microsomes 0.5 mg/mL, 1 μM compound, NADPH, 37° C.; read-out: Liver Microsomal Stability t½, dog
Experimental: as §1, §2, §3

In the case of O=C(Nc1ccccc1F)N[C@H]1N=C(c2ccccc2)c2ccccc2NC1=O [RSV604], the anti-RSV activity (RSV) is given as “sub-micromolar”.
With O=C(N[C@H]1N=C(c2ccccc2)c2cccc(F)c2NC1=O)c1cnn(C2COC2)c1Oc1ccc(Cl)cc1F [Example 3, 5-(4-Chloro-2-fluorophenoxy)-N-[(3S)-9-fluoro-2-oxo-5-phenyl-1,3-dihydro-1,4-benzodiazepin-3-yl]-1-(oxetan-3-yl)pyrazole-4-carboxamide] the half-life at 1 μM [1] was 38.3 min, the half-life at 1 μM [2] was 24.5 min and the EC50 (RSV A2) was 0.071 µM. For the same compound, the CC50 at 2 days (Cell cytotoxicity (CC50)) was over 25 µM and the half-life at 1 μM [3] was 140 min.
O=C(N[C@H]1N=C(c2ccccc2)c2cccc(F)c2NC1=O)c1cnn(C2CCOCC2)c1Oc1c(F)cc(Cl)cc1F [Example 6, 5-(4-Chloro-2,6-difluorophenoxy)-N-[(3S)-9-fluoro-2-oxo-5-phenyl-1,3-dihydro-1,4-benzodiazepin-3-yl]-1-(oxan-4-yl)pyrazole-4-carboxamide] showed an EC50 (RSV A2) of 0.055 µM and a CC50 at 2 days (Cell cytotoxicity (CC50)) of over 25 µM.
CCn1ncc(C(=O)N[C@H]2N=C(c3ccccc3)c3ccccc3NC2=O)c1Oc1c(F)cc(C)cc1F [Example 1, 5-(2,6-Difluoro-4-methylphenoxy)-1-ethyl-N-[(3S)-2-oxo-5-phenyl-1,3-dihydro-1,4-benzodiazepin-3-yl]pyrazole-4-carboxamide] showed a half-life at 1 μM [1] of 5 min, a half-life at 1 μM [2] of 36 min and an EC50 (RSV A2) of 0.091 µM. For the same compound, the CC50 at 2 days (Cell cytotoxicity (CC50)) was over 25 µM and the half-life at 1 μM [3] was 38.6 min.
O=C(N[C@H]1N=C(c2ccccc2)c2cccc(F)c2NC1=O)c1cnn(C2CCOCC2)c1Oc1ccc(Cl)cc1F [Example 4, 5-(4-Chloro-2-fluorophenoxy)-N-[(3S)-9-fluoro-2-oxo-5-phenyl-1,3-dihydro-1,4-benzodiazepin-3-yl]-1-(oxan-4-yl)pyrazole-4-carboxamide] gave a half-life at 1 μM [1] of 19.7 min, a half-life at 1 μM [2] of 38.8 min and an EC50 (RSV A2) of 0.067 µM. The CC50 at 2 days (Cell cytotoxicity (CC50)) was over 25 µM and the half-life at 1 μM [3] was 117 min.
O=C(N[C@H]1N=C(c2ccccc2)c2cccc(F)c2NC1=O)c1cnn(C2COC2)c1Oc1c(F)cc(Cl)cc1F [Example 5, 5-(4-Chloro-2,6-difluorophenoxy)-N-[(3S)-9-fluoro-2-oxo-5-phenyl-1,3-dihydro-1,4-benzodiazepin-3-yl]-1-(oxetan-3-yl)pyrazole-4-carboxamide] gave a half-life at 1 μM [1] of 42.3 min, a half-life at 1 μM [2] of 15.8 min and an EC50 (RSV A2) of 0.074 µM. The CC50 at 2 days (Cell cytotoxicity (CC50)) was over 25 µM and the half-life at 1 μM [3] was 174 min.
Compound Cc1ccc(Oc2c(C(=O)N[C@H]3N=C(c4ccccc4)c4ccccc4NC3=O)cnn2C2CCOCC2)c(F)c1 [Example 2, 5-(2-Fluoro-4-methylphenoxy)-1-(oxan-4-yl)-N-[(3S)-2-oxo-5-phenyl-1,3-dihydro-1,4-benzodiazepin-3-yl]pyrazole-4-carboxamide] has an EC50 (RSV A2) of 0.089 µM and a CC50 at 2 days (Cell cytotoxicity (CC50)) of over 25 µM.

— patent US12384764B2, “Pharmaceutical compounds” (Pfizer Inc., priority 2019, dated 2025)
